Assay results: US20100041892A1, “Therapeutic agent for diabetes” (priority 2005, published 2010)

| SMILES | melting point |
| --- | --- |
| CCCCCS(=O)(=O)NC(=O)CCCCc1cc(OCCCC)nn1Cc1ccc(Cl)cc1Cl [Example 147, 5-[3-butoxy-1-(2,4-dichlorobenzyl)-1H-pyrazol-5-yl]-N-(pentylsulfonyl)pentanamide] | 91 to 93 °C |
| CC(C)Oc1cc(CCC(=O)NS(C)(=O)=O)n(Cc2ccc(Cl)cc2Cl)n1 [Example 148, 3-[1-(2,4-dichlorobenzyl)-3-isopropoxy-1H-pyrazol-5-yl]-N-(methylsulfonyl)propanamide] | 104 to 105 °C |
| CCCCCS(=O)(=O)NC(=O)/C=C/c1cc(OCCOC)nn1Cc1ccc(C(F)(F)F)cc1Cl [Example 149, (2E)-3-[1-[2-chloro-4 (trifluoromethyl)benzyl]-3-(2-methoxyethoxy)-1H-pyrazol-5-yl]-N-(pentylsulfonyl)acrylamide] | 130.5 to 132.5 °C |
| CCCCOc1cc(/C=C/C(=O)NS(=O)(=O)CCC(C)C)n(Cc2ccc(C(F)(F)F)cc2Cl)n1 [Example 150, (2E)-3-{3-butoxy-1-[2-chloro-4-(trifluoromethyl)benzyl]-1H-pyrazol-5-yl}-N-[(3-methylbutyl)sulfonyl]acrylamide] | 89.5 to 90.5 °C |
| CC(C)CCS(=O)(=O)NC(=O)/C=C/c1cc(OC2CCOCC2)nn1Cc1ccc(C(F)(F)F)cc1Cl [Example 153, (2E)-3-[1-[2-chloro-4-(trifluoromethyl)benzyl]-3-(tetrahydro-2H-pyran-4-yloxy)-1H-pyrazol-5-yl]-N-[(3-methylbutyl)sulfonyl]acrylamide] | 149.5 to 152.5 °C |
| CCCCCS(=O)(=O)NC(=O)/C=C/c1cc(OC2CCOCC2)nn1Cc1ccc(C(F)(F)F)cc1Cl [Example 154, (2E)-3-[1-[2-chloro-4-(trifluoromethyl)benzyl]-3-(tetrahydro-2H-pyran-4-yloxy)-1H-pyrazol-5-yl]-N-(pentylsulfonyl)acrylamide] | 160.5 to 161 °C |
| CC(C)CCS(=O)(=O)NC(=O)CCc1cc(C2CC2)nn1Cc1ccc(C(F)(F)F)cc1Cl [Example 157, 3-{1-[2-chloro-4-(trifluoromethyl)benzyl]-3-cyclopropyl-1H-pyrazol-5-yl}-N-[(3-methylbutyl)sulfonyl]propanamide] | 160.5 to 162.5 °C |
| CCCCCS(=O)(=O)NC(=O)/C=C/c1ccc(OCCOC)cc1OCC1CCCCC1 [Example 158, (2E)-3-[2-(cyclohexylmethoxy)-4-(2-methoxyethoxy)phenyl]-N-(pentylsulfonyl)acrylamide] | 97.5 to 98.3 °C |
| CCCCCS(=O)(=O)NC(=O)CCc1ccc(OCCOC)cc1OCC1CCCCC1 [Example 159, 3-[2-(cyclohexylmethoxy)-4-(2-methoxyethoxy)phenyl]-N-(pentylsulfonyl)propanamide] | 81 to 82 °C |
| CCCCCS(=O)(=O)NC(=O)/C=C/c1ccc(OCCOC)cc1OCC1CC1 [Example 160, (2E)-3-[2-(cyclopropylmethoxy)-4-(2-methoxyethoxy)phenyl]-N-(pentylsulfonyl)acrylamide] | 64.8 to 66.3 °C |
| CCCCCS(=O)(=O)NC(=O)CCc1ccc(OCCOC)cc1OC1CCCCC1 [Example 164, 3-[2-(cyclohexyloxy)-4-(2-methoxyethoxy)phenyl]-N-(pentylsulfonyl)propanamide] | 64.1 to 65.4 °C |
| CCCCCS(=O)(=O)NC(=O)CCc1ccc(OCCOC)cc1OCC1CCCO1 (stereo not drawn) [Example 166, 3-[4-(2-methoxyethoxy)-2-(tetrahydrofuran-2-ylmethoxy)phenyl]-N-(pentylsulfonyl)propanamide] | 57.8 to 58.9 °C |
| CCCCCS(=O)(=O)NC(=O)CCc1ccc(OCCOC)cc1OCC1CC1 [Example 167, 3-[2-(cyclopropylmethoxy)-4-(2-methoxyethoxy)phenyl]-N-(pentylsulfonyl)propanamide] | 81.7 to 82.8 °C |
| CCCCCS(=O)(=O)NC(=O)CCc1ccc(OCCOC)cc1OCc1ccc(Cl)cc1Cl [Example 169, 3-[2-[(2,4-dichlorobenzyl)oxy]-4-(2-methoxyethoxy)phenyl]-N-(pentylsulfonyl)propanamide] | 106.7 to 108.2 °C |
| CCCCCS(=O)(=O)NC(=O)CCc1ccc(OCCOC)cc1Oc1ncc(Cl)cc1Cl [Example 171, 3-[2-[(3,5-dichloropyridin-2-yl)oxy]-4-(2-methoxyethoxy)phenyl]-N-(pentylsulfonyl)propanamide] | 92.2 to 93.6 °C |
| CCCCCS(=O)(=O)NC(=O)/C=C/c1ccc(OCCOC)cc1Oc1cc(C(F)(F)F)ccc1[N+](=O)[O-] [Example 174, (2E)-3-{4-(2-methoxyethoxy)-2-[2-nitro-5-(trifluoromethyl)phenoxy]phenyl}-N-(pentylsulfonyl)acrylamide] | 164.5 to 165.2 °C |
| CCCCCS(=O)(=O)NC(=O)/C=C/c1ccc(OCCOC)cc1Nc1ccc(C(F)(F)F)cc1 [Example 176, (2E)-3-(4-(2-methoxyethoxy)-2-{[4-(trifluoromethyl)phenyl]amino}phenyl)-N-(pentylsulfonyl)acrylamide] | 142.3 to 142.6 °C |

| SMILES | melting point |
| --- | --- |
| CCCCCS(=O)(=O)NC(=O)/C=C/c1ccc(OCCOC)cc1Cc1ncc(Br)s1 [Example 178, (2E)-3-[2-[(5-bromo-1,3-thiazol-2-yl)methyl]-4-(2-methoxyethoxy)phenyl]-N-(pentylsulfonyl)acrylamide] | 88.5 to 89.1 °C |
| CCCCCS(=O)(=O)NC(=O)/C=C/c1ccc(OCCOC)cc1Nc1ccc(C(F)(F)F)cc1Cl [Example 184, (2E)-3-[2-{[2-chloro-4-(trifluoromethyl)phenyl]amino}-4-(2-methoxyethoxy)phenyl]-N-(pentylsulfonyl)acrylamide] | 173.5 to 174.8 °C |
| CCCCCS(=O)(=O)NC(=O)/C=C/c1ccc(OCCOC)cc1Oc1ncc([N+](=O)[O-])cc1C [Example 185, (2E)-3-{4-(2-methoxyethoxy)-2-[(3-methyl-5-nitropyridin-2-yl)oxy]phenyl}-N-(pentylsulfonyl)acrylamide] | 148 to 150.3 °C |
| CCCCCS(=O)(=O)NC(=O)/C(=C/c1ccc(OCCOC)cc1Oc1ncc(Cl)cc1Cl)CC [Example 188, (2E)-2-[2-[(3,5-dichloropyridin-2-yl)oxy]-4-(2-methoxyethoxy)benzylidene]-N-(pentylsulfonyl)butanamide] | 118 to 118.4 °C |
| CCCCCS(=O)(=O)NC(=O)/C=C/c1ccc(OCCOC)cc1NC(=O)c1ccc(Cl)cc1Cl [Example 189, 2,4-dichloro-N-(5-(2-methoxyethoxy)-2-{(1E)-3-oxo-3-[(pentylsulfonyl)amino]prop-1-en-1-yl}phenyl)benzamide] | 176.8 to 177.1 °C |
| CCCCCS(=O)(=O)NC(=O)/C=C/c1ccc(OCCOC)cc1NC(=O)c1ccc(F)cc1F [Example 191, 2,4-difluoro-N-(5-(2-methoxyethoxy)-2-{(1E)-3-oxo-3-[(pentylsulfonyl)-amino]prop-1-en-1-yl}phenyl)benzamide] | 140 to 140.8 °C |
| CCCCCS(=O)(=O)NC(=O)/C=C/c1ccc(OCCOC)cc1Oc1ncc(NC(=O)OC(C)(C)C)cc1C [Example 192, tert-butyl [6-(5-(2-methoxyethoxy)-2-{(1E)-3-oxo-3-[(pentylsulfonyl)amino]prop-1-en-1-yl}phenoxy)-5-methylpyridin-3-yl]carbamate] | 149.5 to 150.2 °C |
| CCCCCS(=O)(=O)NC(=O)/C=C/c1ccc(OCCOC(C)=O)cc1Oc1ncc(C(F)(F)F)cc1Cl [Example 194, 2-(3-{[3-chloro-5-(trifluoromethyl)pyridin-2-yl]oxy}-4-{(1E)-3-oxo-3-[(pentylsulfonyl)amino]prop-1-en-1-yl}phenoxy)ethyl acetate] | 141 to 144 °C |
| CCCCCS(=O)(=O)NC(=O)/C=C/c1ccc(OCC2CCCO2)cc1Oc1ncc(C(F)(F)F)cc1Cl (stereo not drawn) [Example 195, (2E)-3-[2-{[3-chloro-5-(trifluoromethyl)pyridin-2-yl]oxy}-4-(tetrahydrofuran-2-ylmethoxy)phenyl]-N-(pentylsulfonyl)acrylamide] | 126.5 to 128.5 °C |
| COCOc1cc(/C=C/S(=O)(=O)NC(=O)OC(C)(C)C)n(Cc2ccc(Cl)cc2Cl)n1 [Example 200, tert-butyl-({(E)-2-[1-(2,4-dichlorobenzyl)-3-(methoxymethoxy)-1H-pyrazol-5-yl]vinyl}sulfonyl)carbamate] | 139 to 140 °C |
| COCCCS(=O)(=O)NC(=O)CCc1ccc(OC(C)C)cc1Oc1ncc(C(F)(F)F)cc1Cl [Example 202, 3-(2-{[3-chloro-5-(trifluoromethyl)pyridin-2-yl]oxy}-4-isopropoxyphenyl)-N-[(3-methoxypropyl)sulfonyl]propanamide] | 114 to 115 °C |
| COCCOc1ccc(CCCOC(=O)NS(=O)(=O)NCCC(C)C)c(Oc2ncc(C(F)(F)F)cc2Cl)c1 [Example 203, 3-[2-{[3-chloro-5-(trifluoromethyl)pyridin-2-yl]oxy}-4-(2-methoxyethoxy)phenyl]propyl {[(3-methylbutyl)amino]sulfonyl}carbamate] | 123 to 123.5 °C |
| COCCOc1ccc(CCCOC(=O)NS(=O)(=O)NCCc2ccccc2)c(Oc2ncc(C(F)(F)F)cc2Cl)c1 [Example 206, 3-[2-{[3-chloro-5-(trifluoromethyl)pyridin-2-yl]oxy}-4-(2-methoxyethoxy)phenyl]propyl {[(2-phenylethyl)amino]sulfonyl}carbamate] | 110 to 113 °C |
| CCCCN(C(=O)CCc1ccc(OCCOC)cc1Oc1ncc(C(F)(F)F)cc1Cl)S(N)(=O)=O [Example 212, N-(aminosulfonyl)-N-butyl-3-[2-{[3-chloro-5-(trifluoromethyl)pyridin-2-yl]oxy}-4-(2-methoxyethoxy)phenyl]propanamide] | 102 to 103 °C |
| COCCOc1ccc(CCC(=O)N(CCOC)S(N)(=O)=O)c(Oc2ncc(C(F)(F)F)cc2Cl)c1 [Example 213, N-(aminosulfonyl)-3-[2-{[3-chloro-5-(trifluoromethyl)pyridin-2-yl]oxy}-4-(2-methoxyethoxy)phenyl]-N-(2-methoxyethyl)propanamide] | 101 to 101.1 °C |
| CCCCCNS(=O)(=O)NC(=O)/C=C/c1ccc(OCCOC)cc1Oc1ncc(C(F)(F)F)cc1Cl [Example 215, (2E)-3-[2-{[3-chloro-5-(trifluoromethyl)pyridin-2-yl]oxy}-4-(2-methoxyethoxy)phenyl]-N-[(pentylamino)sulfonyl]acrylamide] | 120 to 122 °C |
